# Assay results: patent publication US4894225A (priority 1987, dated 1990)
# System: MX-1 tumors (human breast adenocarcinoma-derived tumor cell line)
# Conditions: in vivo
structure (smiles),measurement,value
O=P1(N(CCCl)CCCl)NCCCO1 (stereo not shown) [cytoxan],% TGI (tumor growth inhibition vs PBS),90.5%
same,deaths,0/5
same,ΔBW (change in body weight),1.11
same,ΔTW (change in tumor weight),2.4
